{"source": "patent US10973807B2", "about": "“Pharmaceutical composition comprising pyrrolo-fused six-membered heterocyclic compound” (Jiangsu Hengrui Medicine Co., Ltd., priority 2016, dated 2021)", "key": {"[1]": {"experiment": "Stability in the presence of moisture", "assay_type": "physicochemical", "details": "compound or a pharmaceutically acceptable salt thereof"}, "Water solubility": {"experiment": "Water solubility", "assay_type": "physicochemical", "details": "compound or a pharmaceutically acceptable salt thereof"}}, "data": [{"compound": "CCN(CC)CCN1CCc2[nH]c(/C=C3\\C(=O)Nc4ccc(F)cc43)c(C)c2C1=O.O=C(O)C[C@H](O)C(=O)O", "note": "[compound of formula (I), 5-(2-diethylamino-ethyl)-2-(5-fluoro-2-oxo-1,2-dihydro-indol-3-ylidene-methyl)-3-methyl-1,5,6,7-tetrahydro-pyrrolo[3,2-c]pyridin-4-one]", "values": [{"measurement": "stability in the presence of moisture", "setting": "[1]", "value": "unstable"}, {"measurement": "water solubility", "setting": "Water solubility", "value": "poor"}]}]}
